According to US6479435B1, “Diaryl ethers and processes for their preparation and herbicidal and desiccant compositions containing them” (ISK Americas Incorporated, priority 1997, dated 2002):

Legend:
Assay type in all cases: in vivo
[1] = tested on: ivyleaf morningglory (Ipomoea hederacea, IPOHE); assay: Pre-emerge greenhouse herbicide test, phytotoxicity rating; conditions: Ipomoea, pre-emergence, 336 h, 14 days after application, rating scale 0-100; for pest or weed control at 125 g/ha: Rate 125 g al/ha; for pest or weed control at 500 g/ha: Rate 500 g al/ha
How it was run: (§1)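 Seeds sown in sandy loam mix one day before track-sprayer application of compounds in acetone at 125–1000 g ai/ha (187 l/ha), then surface-watered to incorporate and bottom-watered. Visual rating 14 days after application on a 0–100 scale (0 = no damage, 100 = all plants dead).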

[2] = tested on: lambsquarters (Chenopodium album, CHEAL); assay: as above; conditions: Chenopodium album, pre-emergence, 336 h, 14 days after application, rating scale 0-100; for pest or weed control at 125 g/ha: Rate 125 g al/ha; for pest or weed control at 500 g/ha: Rate 500 g al/ha
How it was run: as §1

[3] = tested on: large crabgrass (Digitaria sanguinalis, DIGSA); assay: as above; conditions: Digitaria sanguinalis, pre-emergence, 336 h, 14 days after application, rating scale 0-100; for pest or weed control at 125 g/ha: Rate 125 g al/ha; for pest or weed control at 500 g/ha: Rate 500 g al/ha
How it was run: as §1

[4] = tested on: redroot pigweed (Amaranthus retroflexus, AMARE); assay: as above; conditions: Amaranthus retroflexus, pre-emergence, 336 h, 14 days after application, rating scale 0-100; for pest or weed control at 125 g/ha: Rate 125 g al/ha; for pest or weed control at 500 g/ha: Rate 500 g al/ha
How it was run: as §1

[5] = tested on: sicklepod (Cassia obtusifolia, CASOB); assay: as above; conditions: Senna obtusifolia, pre-emergence, 336 h, 14 days after application, rating scale 0-100; for pest or weed control at 125 g/ha: Rate 125 g al/ha; for pest or weed control at 500 g/ha: Rate 500 g al/ha
How it was run: as §1

[6] = tested on: velvetleaf (Abutilon theophrasti, ABUTH); assay: as above; conditions: Abutilon theophrasti, pre-emergence, 336 h, 14 days after application, rating scale 0-100; for pest or weed control at 125 g/ha: Rate 125 g al/ha; for pest or weed control at 500 g/ha: Rate 500 g al/ha
How it was run: as §1

[7] = tested on: Johnsongrass (Sorghum halepense, SORHA); assay: Post-emerge greenhouse herbicide test, phytotoxicity rating; conditions: Sorghum halepense, post-emergence, 336 h, 14 days after application, scale 0-100; for pest or weed control at 63 g/ha: rate 63 g ai/ha; for pest or weed control at 500 g/ha: rate 500 g ai/ha
How it was run: (§2)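 Compounds in acetone with 0.25% v/v non-ionic surfactant were track-sprayed at 187 l/ha over plants at the 2-3 leaf stage, at 63 to 1000 g ai/ha. Pots were bottom-watered. Injury was scored visually 14 days later on a 0-100 scale, where 0 is no damage and 100 is complete plant death.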

[8] = tested on: barnyardgrass (Echinochloa crusgalli, ECHCG); assay: as above; conditions: Echinochloa crus-galli, post-emergence, 336 h, 14 days after application, scale 0-100; for pest or weed control at 63 g/ha: rate 63 g ai/ha; for pest or weed control at 500 g/ha: rate 500 g ai/ha
How it was run: as §2

[9] = tested on: green foxtail (Setaria viridis, SETVI); assay: as above; conditions: Setaria viridis, post-emergence, 336 h, 14 days after application, scale 0-100; for pest or weed control at 63 g/ha: rate 63 g ai/ha; for pest or weed control at 500 g/ha: rate 500 g ai/ha
How it was run: as §2

[10] = tested on: ivyleaf morningglory (Ipomoea hederacea, IPOHE); assay: as above; conditions: Ipomoea, post-emergence, 336 h, 14 days after application, scale 0-100; for pest or weed control at 63 g/ha: rate 63 g ai/ha; for pest or weed control at 500 g/ha: rate 500 g ai/ha
How it was run: as §2

[11] = tested on: lambsquarters (Chenopodium album, CHEAL); assay: as above; conditions: Chenopodium album, post-emergence, 336 h, 14 days after application, scale 0-100; for pest or weed control at 63 g/ha: rate 63 g ai/ha; for pest or weed control at 500 g/ha: rate 500 g ai/ha
How it was run: as §2

[12] = tested on: large crabgrass (Digitaria sanguinalis, DIGSA); assay: as above; conditions: Digitaria sanguinalis, post-emergence, 336 h, 14 days after application, scale 0-100; for pest or weed control at 63 g/ha: rate 63 g ai/ha; for pest or weed control at 500 g/ha: rate 500 g ai/ha
How it was run: as §2

[13] = tested on: redroot pigweed (Amaranthus retroflexus, AMARE); assay: as above; conditions: Amaranthus retroflexus, post-emergence, 336 h, 14 days after application, scale 0-100; for pest or weed control at 63 g/ha: rate 63 g ai/ha; for pest or weed control at 500 g/ha: rate 500 g ai/ha
How it was run: as §2

[14] = tested on: sicklepod (Cassia obtusifolia, CASOB); assay: as above; conditions: Senna obtusifolia, post-emergence, 336 h, 14 days after application, scale 0-100; for pest or weed control at 63 g/ha: rate 63 g ai/ha; for pest or weed control at 500 g/ha: rate 500 g ai/ha
How it was run: as §2

[15] = tested on: velvetleaf (Abutilon theophrasti, ABUTH); assay: as above; conditions: Abutilon theophrasti, post-emergence, 336 h, 14 days after application, scale 0-100; for pest or weed control at 63 g/ha: rate 63 g ai/ha; for pest or weed control at 500 g/ha: rate 500 g ai/ha
How it was run: as §2

SMILES | pest or weed control at 125 g/ha [1] [%] | pest or weed control at 500 g/ha [1] [%] | pest or weed control at 125 g/ha [2] [%] | pest or weed control at 500 g/ha [2] [%] | pest or weed control at 125 g/ha [3] [%] | pest or weed control at 500 g/ha [3] [%] | pest or weed control at 125 g/ha [4] [%] | pest or weed control at 500 g/ha [4] [%] | pest or weed control at 125 g/ha [5] [%] | pest or weed control at 500 g/ha [5] [%] | pest or weed control at 125 g/ha [6] [%] | pest or weed control at 500 g/ha [6] [%] | pest or weed control at 63 g/ha [7] [%] | pest or weed control at 500 g/ha [7] [%] | pest or weed control at 63 g/ha [8] [%] | pest or weed control at 500 g/ha [8] [%] | pest or weed control at 63 g/ha [9] [%] | pest or weed control at 500 g/ha [9] [%] | pest or weed control at 63 g/ha [10] [%] | pest or weed control at 500 g/ha [10] [%] | also measured
Nn1c(C(F)(F)F)cc(=O)n(-c2cc(Oc3ncccn3)c(Cl)cc2F)c1=O [Compound 9-16, 1-Amino-3-[4-chloro-2-fluoro-5-(2-pyrimidyloxy)phenyl]-6-trifluoromethyl-1,2,3,4-tetrahydropyrimidine-2,4-dione] | 100 | 100 | 100 | 100 | 100 | 100 | 100 | 100 | 100 | 100 | 100 | 100 | 100 | 100 | 100 | 100 | 100 | 100 | 100 | 100 | pest or weed control at 63 g/ha [11]: 100%; pest or weed control at 500 g/ha [11]: 100%; pest or weed control at 63 g/ha [12]: 100%; pest or weed control at 500 g/ha [12]: 100%; pest or weed control at 63 g/ha [13]: 100%; pest or weed control at 500 g/ha [13]: 100%; pest or weed control at 63 g/ha [14]: 100%; pest or weed control at 500 g/ha [14]: 100%; pest or weed control at 63 g/ha [15]: 100%; pest or weed control at 500 g/ha [15]: 100%
Nn1c(C(F)(F)F)cc(=O)n(-c2cc(Oc3nccc(Cl)n3)c(Cl)cc2F)c1=O [Compound 9-17, 1-Amino-3-[4-chloro-2-fluoro-5-(4-chloro-2-pyrimidyloxy)phenyl]-6-trifluoromethyl-1,2,3,4-tetrahydropyrimidine-2,4-dione] | 20 | 100 | 100 | 100 | 30 | 100 | 100 | 100 | 20 | 70 | 100 | 100 | 0 | 80 | 0 | 60 | 10 | 10 | 100 | 95 | pest or weed control at 63 g/ha [11]: 80%; pest or weed control at 500 g/ha [11]: 90%; pest or weed control at 63 g/ha [12]: 10%; pest or weed control at 500 g/ha [12]: 10%; pest or weed control at 63 g/ha [13]: 95%; pest or weed control at 500 g/ha [13]: 95%; pest or weed control at 63 g/ha [14]: 0%; pest or weed control at 500 g/ha [14]: 0%; pest or weed control at 63 g/ha [15]: 100%; pest or weed control at 500 g/ha [15]: 100%
Nn1c(C(F)(F)F)cc(=O)n(-c2cc(Oc3ccccc3[N+](=O)[O-])c(Cl)cc2F)c1=O [Compound 9-21, 1-amino-3-[4-chloro-2-fluoro-5-(2-nitrophenoxy)phenyl]-6-trifluoromethyl-1,2,3,4-tetrahydropyrimidine-2,4-dione] | 60 | 100 | 100 | 100 | 100 | 100 | 100 | 100 | 30 | 90 | 100 | 100 | 60 | 90 | 70 | 100 | 90 | 100 | 100 | 100 | pest or weed control at 63 g/ha [11]: 100%; pest or weed control at 500 g/ha [11]: 100%; pest or weed control at 63 g/ha [12]: 30%; pest or weed control at 500 g/ha [12]: 90%; pest or weed control at 63 g/ha [13]: 100%; pest or weed control at 500 g/ha [13]: 100%; pest or weed control at 63 g/ha [14]: 100%; pest or weed control at 500 g/ha [14]: 100%; pest or weed control at 63 g/ha [15]: 100%; pest or weed control at 500 g/ha [15]: 100%
